# From US6054441A, “Oxypurine nucleosides and their congeners, and acyl derivatives thereof, for improvement of hematopoiesis” (priority 1995, dated 2000)
# Read-outs that look alike come from different tables or passages of the source.
# Experiments:
# [1] = system: blood cell counts after cyclophosphamide; assay: Recovery after cyclophosphamide (Example 61); assay type: in vivo, Balb/C mice; settings: 7 days after CP
# Procedure: (§1) Twelve female Balb/C mice weighing approximately 20 grams each received a 0.4 ml i.p. injection of either N-palmitoylguanine (25 mg/kg/treatment) in a Tween-DMSO vehicle (0.2% Tween-80 and 7.5% DMSO in saline) or vehicle alone one time daily for five days following a single injection of cyclophosphamide (CP) (250 mg/kg, i.p.). On day 7 following CP administration all twelve of these animals were bled and then sacrificed by cervical dislocation. Six untreated mice were also bled and sacrificed to provide data on normal (basal) values. Spleens were removed and weighed, and complete blood cell counts performed.
# [2] = system: blood cell counts after 5-FU; assay: Pretreatment, recovery after 5-fluorouracil (Example 60); assay type: in vivo, Balb/C mice; settings: 7 days after 5-FU
# Procedure: as §1, with “three days. On the fourth day 5-fluorouracil (5-FU; 150” for “five days following a single injection of cyclophosphamide (CP) (250”, “i.p.) was administered to all twelve animals.” for “i.p.).”, “5-FU” for “CP”
# [3] = system: hematopoietic recovery after cyclophosphamide; assay: Hematopoietic recovery after cyclophosphamide, acyl chain length (Example 38); assay type: in vivo, Balb/C mice; settings: day 7; guanosine 5, acyl derivatives 2.5 μmoles/mouse/day i.p.
# Procedure: Cyclophosphamide (CP) (275 mg/kg, i.p.) was administered to 70 Balb/C female mice weighing approximately 20 grams each. Twenty-four hours later and each day thereafter for a total of 6 days, mice were given a 0.4 ml i.p injection of either physiological saline (controls), Tween 80 (0.2%), guanosine (5 μmoles/mouse/day in 0.2% Tween 80), or 2.5 μmoles per mouse per day of one of the following acylated derivatives of guanosine in 0.2% Tween 80: triacetylguanosine, octanoylguanosine, lauroylguanosine, or palmitoylguanosine. On day 7 following CP administration all 10 animals from each of the 7 groups were bled, and then sacrificed by cervical dislocation. Spleens were removed and weighed, and complete blood counts performed.
# mouse bone marrow cells = settings: cited from earlier work
# [4] = system: hematopoietic recovery after cyclophosphamide; assay: Hematopoietic recovery after cyclophosphamide (Example 37); assay type: in vivo, Balb/C mice; settings: 5 μmoles/mouse/day i.p. 6 days; day 7; vs saline
# Procedure: Twenty-four hours later and each day thereafter for a total of 6 days, mice were given a 0.4 ml i.p. injection of either physiological saline (controls), guanine (5 μmoles/mouse/day), or guanosine (5 μmoles/mouse/day). On day 7 all 10 mice in each of the three groups were bled, and then sacrificed by cervical dislocation. Spleens were removed and weighed, and complete blood cell counts performed.
# [5] = system: human myeloid leukemia cell line (HL-60); settings: cited from earlier work
# [6] = system: hematopoietic recovery after cyclophosphamide; assay: Hematopoietic recovery after cyclophosphamide (Example 64); assay type: in vivo, Balb/C mice; settings: day 7
# Procedure: Fourteen female Balb/C mice weighing approximately 20 grams each received a 0.4 ml i.p. injection of either N-isobutyryldeoxyguanosine (50 mg/kg/treatment) in a Tween vehicle (0.2% Tween-80 in saline) or vehicle alone one time daily for five days following a single injection of cyclophosphamide (CP) (250 mg/kg, i.p.). On day 7 following CP administration all fourteen animals were bled and then sacrificed by cervical dislocation. Spleens were removed and weighed, and complete blood cell counts performed.
# [7] = system: Interleukin-3 dependent bone marrow cells; settings: 10 micrograms per milliliter
# Procedure: (§2) Bone marrow cells were obtained by flushing the femurs of three male B6D2F1 mice. The cells were plated at 5.0×10^5 /ml in MEM plus 10% fetal calf serum and 25 Units/ml of recombinant IL-3 for 24-48 hours. Non-adherent cells were then separated from adherent cells and maintained for an additional twelve days. IL-3 was washed from cells, and cells were plated in MEM plus 10% fetal calf serum in the presence or absence of IL-3 and with or without the addition of palmitoyldeoxyguanosine (10 micrograms per milliliter) or deoxyguanosine (10 micrograms per milliliter). Cells were counted using the trypan blue exclusion method, and the percent of dead cells (trypan blue positive) was determined at 24, 40, 60 and 84 hours following the wash.
# [8] = system: Interleukin-3 dependent bone marrow cells; assay: cells; settings: Mus musculus, Bone marrow cell, read-out: % Dead Cells
# Procedure: as §2
# [9] = in presence of post-endotoxin serum
smiles,measurement,setting,value
"CCCCCCCCCCCCCCCC(=O)Nc1nc2nc[nH]c2c(=O)[nH]1 [NPG, N^2 -Palmitoylguanine]",Neutrophils,[1]; 25 mg/kg/treatment,5.5 ± .5 K/μl
same,Platelets,[1]; 25 mg/kg/treatment,774 ± 734 K/μl
same,WBC,[1]; 25 mg/kg/treatment,7.3 ± .6 K/μl
same,Spleen,"[1]; 25 mg/kg/treatment i.p., 5 days",145 ± 13 mg
same,Lymphocytes,[2]; 25 mg/kg/treatment,4.5 ± .5 K/μl
same,Platelets,[2]; 25 mg/kg/treatment,787 ± 72 K/μl
same,WBC,[2]; 25 mg/kg/treatment,4.6 ± .5 K/μl
same,Spleen,"[2]; 25 mg/kg/treatment i.p., 3 days before",79 ± 3 mg
"CCCCCCCCCCCC(=O)OC[C@H]1O[C@@H](n2cnc3c(=O)[nH]c(N)nc32)[C@H](O)[C@@H]1O [laurolyguanosine, Lauroylguanosine]",spleen weight,[3],significantly larger spleens
Nc1nc2c(ncn2[C@@H]2O[C@H](COP(=O)(O)O)[C@@H](O)[C@H]2O)c(=O)[nH]1 [5'-guanosine monophosphate],number of colonies formed,mouse bone marrow cells; [9],inactive
Nc1nc2nc[nH]c2c(=O)[nH]1 [guanine],Neutrophils,[4],significantly more
same,spleen weight,[4],significantly heavier spleens
same,total white blood cells,[4],significantly more
same,effect on induced maturation of HL-60 cells,[5]; HL-60 with inducing agents,prevented their induced maturation into functional neutrophils
"Nc1nc2c(ncn2[C@@H]2O[C@@H]3COP(=O)(O)O[C@H]3[C@H]2O)c(=O)[nH]1 [cGMP, 3',5'-cyclic guanosine monophosphate]",number of colonies formed,mouse bone marrow cells; in absence of post-endotoxin serum,no effect
same,number of colonies formed,mouse bone marrow cells; [9],increase in the number of colonies formed
"CC1=C(/C=C/C(C)=C/C=C/C(C)=C/C(=O)O)C(C)(C)CCC1 [retinoic acid, reference compound]",conversion of immature blast cells into mature granulocytes,[5]; HL-60 in vitro,induced
CC(C)C(=O)Nc1nc2c(ncn2[C@H]2C[C@H](O)[C@@H](CO)O2)c(=O)[nH]1 [N-isobutyryldeoxyguanosine],spleen weight,"[6]; 50 mg/kg/treatment, control 72.7±2.7, p<.001, in mg (unit assumed)",116.3±8.0
same,lymphocyte counts,"[6]; control 1.2±0.2, p<.02",2.1±0.2
same,total neutrophil counts,"[6]; control 3.3±0.4, p<.001",6.6±0.5
same,white blood cell counts,"[6]; control 4.6±0.5, p<.001",8.9±0.5
"Nc1nc2c(ncn2[C@H]2C[C@H](O)[C@@H](CO)O2)c(=O)[nH]1 [dG, deoxyguanosine]",prevention of apoptotic cell death due to IL-3 deprivation,[7],did nothing to prevent apoptotic cell death due to IL-3 deprivation
same,cytotoxicity at 10 µg/mL,[8]; 24 h,15.5 ± 0.5%
same,cytotoxicity at 10 µg/mL,[8]; 40 h,21.5 ± 3.5%
same,cytotoxicity at 10 µg/mL,[8]; 60 h,46.3 ± 10.3%
same,cytotoxicity at 10 µg/mL,[8]; 84 h,68.3 ± 6%
